Read-outs that look alike come from different tables or passages of the source. *1 amine or outer side, *2 acyl side, *3 side chain or, on linkers, in order; H or OH if unused. Where a SMILES comes first, the peptide text is derived from it. Bridges are numbered along the chain shown (N, C = ends). Primed or numbered codes have the meaning given here. [ ]: non-standard residue; d: D form. The star is where a group is joined. T1 = linker NH2CH2CH2N(SO2Me)CH2COOH, CS(=O)(=O)N(CCN[*:1])CC(=O)[*:2]; T1″ = NH2CH2CH2N(SO2Me)CH2COOH, CS(=O)(=O)N(CCN[*:1])CC(=O)[*:2]; dProlinol(O-CH2CO) = O=C(COC[C@H]1CCCN1[*:1])[*:2]; N(2-Aminoethyl)Gly = O=C(CN(CCN[*:3])[*:1])[*:2]; Nle = CCCC[C@H](N)C(=O)O; Ms = CS(=O)(=O)*; Sar = CNCC(=O)O
Tested on: H929 myeloma cells
Format: cell-based, human
Details: for fold more potent than linear HYD1: reference of the 10- and 15-fold statements not expressly named; for bioactivity relative to parent/comparator peptide: SAR statements; for activity relative to linear D-HYD1 (words): TOPRO 3
Method: H929 cells were treated for 24 hours with varying concentrations of peptide. Cell death was measured by Topro-3 staining and FACS analysis. The IC50 values were obtained from linear regression analysis and an average value was obtained from 3 independent experiments.
Table 4 legend: Structure activity relationship in H929 myeloma cells of cyclic INTEGRIN INTERACTION INHIBITORS derivatives. The minimal bioactive core sequence of INTEGRIN INTERACTION INHIBITORS WSVVM (SEQ ID NO:33) was cyclized using 2 novel reduced amide bond beta turn promoters and KLKLK (SEQ ID NO:34) as the non-recognition sequence. H929 cells were treated with varying concentrations of the indicated peptide for 24 h. Cell viability was determined using Topro-3 staining and FACS analysis after drug treatment. IC50 values were generated from linear regressions generated from the dose response curves (n=mean of 3 independent experiments).
A colony forming assay was used to compare induced cell death in H929 multiple myeloma cells. Cells were treated with integrin interaction inhibitors, shown in FIG. 5 and Table 4, and cell death was measured following 24 hour peptide treatment by TOPRO-3 staining and FACS analysis.

[1] = H929 myeloma cells, 24 h treatment, Topro-3 staining and FACS, mean of at least 3 independent experiments, read-out: IC50
[2] = Table 8, cyclic III peptide analogs, H929 cells, read-out: IC50

Compound: CSCC[C@@H]1NC(=O)CN(S(C)(=O)=O)CCNC(=O)[C@H](CCCCN)NC(=O)[C@H](CC(C)C)NC(=O)[C@H](CCCCN)NC(=O)[C@H](CC(C)C)NC(=O)[C@H](CCCCN)NC(=O)CN(S(C)(=O)=O)CCNC(=O)[C@H](Cc2c[nH]c3ccccc23)NC(=O)[C@H](CO)NC(=O)[C@H](C(C)C)NC(=O)[C@H](C(C)C)NC1=O [Peptide 2, KLKLKT1MVVSWT1]
- fold more potent compared to the cyclic D-HYD1 variant (H929 cells): 2 fold
- fold more potent than linear HYD1 (H929 cells): 2.5 fold

Compound: CSCC[C@@H]1NC(=O)CN(S(C)(=O)=O)CCNC(=O)[C@H](CCCCN)NC(=O)[C@H](CC(C)C)NC(=O)[C@H](CCCCN)NC(=O)[C@H](CC(C)C)NC(=O)[C@H](CCCCN)NC(=O)CN(S(C)(=O)=O)CCNC(=O)[C@H](C)NC(=O)[C@H](CO)NC(=O)[C@H](C(C)C)NC(=O)[C@H](C(C)C)NC1=O [Peptide 3, KLKLKT1MVVSAT1]
- bioactivity relative to parent/comparator peptide (H929 cells): decrease in activity

Compound: CSCC[C@@H]1NC(=O)CN(S(C)(=O)=O)CCNC(=O)[C@H](CCCCN)NC(=O)[C@H](CC(C)C)NC(=O)[C@H](CCCCN)NC(=O)[C@H](CC(C)C)NC(=O)[C@H](CCCCN)NC(=O)CN(S(C)(=O)=O)CCNC(=O)[C@H](Cc2c[nH]c3ccccc23)NC(=O)[C@H](C)NC(=O)[C@H](C(C)C)NC(=O)[C@H](C(C)C)NC1=O [Peptide 4, KLKLKT1MVVAWT1]
- fold more potent than linear HYD1 (H929 cells): approximately 10 fold
- bioactivity relative to parent/comparator peptide (H929 cells): significantly improved the bioactivity
- bioactivity relative to parent/comparator peptide (H929 cells, listed as L-cINTEGRIN INTERACTION INHIBITORSa7): increase in activity

Compound: CSCC[C@@H]1NC(=O)CN(S(C)(=O)=O)CCNC(=O)[C@H](CCCCN)NC(=O)[C@H](CC(C)C)NC(=O)[C@H](CCCCN)NC(=O)[C@H](CC(C)C)NC(=O)[C@H](CCCCN)NC(=O)CN(S(C)(=O)=O)CCNC(=O)[C@H](Cc2c[nH]c3ccccc23)NC(=O)[C@H](CO)NC(=O)[C@H](C)NC(=O)[C@H](C(C)C)NC1=O [Peptide 5, KLKLKT1MVASWT1]
- bioactivity relative to parent/comparator peptide (H929 cells): decrease in activity

Compound: CSCC[C@@H]1NC(=O)CN(S(C)(=O)=O)CCNC(=O)[C@H](CCCCN)NC(=O)[C@H](CC(C)C)NC(=O)[C@H](CCCCN)NC(=O)[C@H](CC(C)C)NC(=O)[C@H](CCCCN)NC(=O)CN(S(C)(=O)=O)CCNC(=O)[C@H](Cc2c[nH]c3ccccc23)NC(=O)[C@H](CO)NC(=O)[C@H](C(C)C)NC(=O)[C@H](C)NC1=O [Peptide 6, KLKLKT1MAVSWT1]
- bioactivity relative to parent/comparator peptide (H929 cells): increase in activity

Compound: CC(C)C[C@@H]1NC(=O)[C@H](CCCCN)NC(=O)CN(S(C)(=O)=O)CCNC(=O)[C@H](Cc2c[nH]c3ccccc23)NC(=O)[C@H](CO)NC(=O)[C@H](C(C)C)NC(=O)[C@H](C(C)C)NC(=O)[C@H](C)NC(=O)CN(S(C)(=O)=O)CCNC(=O)[C@H](CCCCN)NC(=O)[C@H](CC(C)C)NC(=O)[C@H](CCCCN)NC1=O [Peptide 7, KLKLKT1AVVSWT1]
- bioactivity relative to parent/comparator peptide (H929 cells): decrease in activity

Compound: CCCC[C@@H]1NC(=O)CN(S(C)(=O)=O)CCNC(=O)[C@H](CCCCN)NC(=O)[C@H](CC(C)C)NC(=O)[C@H](CCCCN)NC(=O)[C@H](CC(C)C)NC(=O)[C@H](CCCCN)NC(=O)CN(S(C)(=O)=O)CCNC(=O)[C@H](Cc2c[nH]c3ccccc23)NC(=O)[C@H](CO)NC(=O)[C@H](C(C)C)NC(=O)[C@H](C(C)C)NC1=O [Peptide 8, KLKLKT1N*VVSWT1]
- fold more potent than linear HYD1 (H929 cells): 15 fold
- bioactivity relative to parent/comparator peptide (H929 cells): resulted in a further increase of the peptide's bioactivity

Compound: CCCC[C@@H]1NC(=O)CN(S(C)(=O)=O)CCNC(=O)[C@H](CCCCN)NC(=O)[C@H](CC(C)C)NC(=O)[C@H](CCCCN)NC(=O)[C@H](CC(C)C)NC(=O)[C@H](CCCCN)NC(=O)CN(S(C)(=O)=O)CCNC(=O)[C@H](Cc2c[nH]c3ccccc23)NC(=O)[C@H](Cc2ccc(O)cc2)NC(=O)[C@H](C(C)C)NC(=O)[C@H](C(C)C)NC1=O [Peptide 9, KLKLKT1N*VVYWT1]
- bioactivity relative to parent/comparator peptide (H929 cells): had a similar bioactivity as the inverso cyclic III peptide 8

Compound: CCCC[C@@H]1NC(=O)CN(S(C)(=O)=O)CCNC(=O)[C@H](CCCCN)NC(=O)[C@H](CC(C)C)NC(=O)[C@H](CCCCN)NC(=O)[C@H](CC(C)C)NC(=O)[C@H](CCCCN)NC(=O)COC[C@H]2CCCN2C(=O)[C@H](Cc2c[nH]c3ccccc23)NC(=O)[C@H](C)NC(=O)[C@H](C(C)C)NC(=O)[C@H](C(C)C)NC1=O [Peptide 16, KLKLKT1N*VVAWT3] (Ms-[N(2-Aminoethyl)Gly][Nle]VVAW[dProlinol(O-CH2CO)]KLKLK; lactam 1-C)
- IC50 [1]: 13 µM
- IC50 (text b390, H929 multiple myeloma cells, read-out: bioactivity): 1 µM

Compound: CCCC[C@@H]1NC(=O)CN(S(C)(=O)=O)CCNC(=O)[C@H](CCCCN)NC(=O)[C@H](CC(C)C)NC(=O)[C@H](CCCCN)NC(=O)[C@H](CC(C)C)NC(=O)[C@H](CCC(N)=O)NC(=O)COC[C@H]2CCCN2C(=O)[C@H](Cc2c[nH]c3ccccc23)NC(=O)[C@H](C)NC(=O)[C@H](C(C)C)NC(=O)[C@H](C(C)C)NC1=O [Peptide 18, QLKLKT1N*VVAWT3] (Ms-[N(2-Aminoethyl)Gly][Nle]VVAW[dProlinol(O-CH2CO)]QLKLK; lactam 1-C)
- IC50 (24 h): 19 µM

Compound: CCCC[C@@H]1NC(=O)[C@H](C(C)C)NC(=O)[C@H](C(C)C)NC(=O)[C@H](C)NC(=O)[C@H](Cc2c[nH]c3ccccc23)NC(=O)COC[C@H]2CCCN2C(=O)[C@H](CCCCN)NC(=O)[C@H](CC(C)C)NC(=O)[C@H](CCCCN)NC(=O)[C@H](CC(C)C)NC(=O)[C@H](CCCCN)NC(=O)COC[C@H]2CCCN2C1=O [Peptide 22, KLKLKT3WAVVN*T3] (cyclo(KLKLK[dProlinol(O-CH2CO)]WAVV[Nle][dProlinol(O-CH2CO)]))
- IC50 (24 h): 17 µM

Compound: CCCC[C@@H]1NC(=O)[C@H](C(C)C)NC(=O)[C@H](C(C)C)NC(=O)[C@H](C)NC(=O)[C@H](Cc2c[nH]c3ccccc23)NC(=O)COC[C@H]2CCCN2C(=O)[C@H](CCCCN)NC(=O)CN(C)C(=O)[C@H](CCCCN)NC(=O)CN(C)C(=O)[C@H](CCCCN)NC(=O)COC[C@H]2CCCN2C1=O [Peptide 23, KXKXKT3WAVVN*T3] (cyclo(K[Sar]K[Sar]K[dProlinol(O-CH2CO)]WAVV[Nle][dProlinol(O-CH2CO)]))
- IC50 (24 h): > 150 µM
- bioactivity relative to parent/comparator peptide (H929 cells): poor bioactivity

Compound: CCCC[C@@H]1NC(=O)CN(S(C)(=O)=O)CCNC(=O)[C@H](CCCCN)NC(=O)[C@H](CC(C)C)NC(=O)[C@H](CCCCN)NC(=O)[C@H](CC(C)C)NC(=O)[C@H](CCCCN)NC(=O)COC[C@H]2CCCN2C(=O)[C@H](Cc2c[nH]c3ccccc23)NC(=O)[C@H](C)NC(=O)[C@H](CC(C)C)NC(=O)[C@H](C(C)C)NC1=O [Peptide 24, KLKLKT1N*VLAWT3] (Ms-[N(2-Aminoethyl)Gly][Nle]VLAW[dProlinol(O-CH2CO)]KLKLK; lactam 1-C)
- IC50 [2]: 10 µM

Compound: CCCC[C@@H]1NC(=O)CN(S(C)(=O)=O)CCNC(=O)[C@H](CCCCN)NC(=O)[C@H](CC(C)C)NC(=O)[C@H](CCCCN)NC(=O)[C@H](CC(C)C)NC(=O)[C@H](CCCCN)NC(=O)COC[C@H]2CCCN2C(=O)[C@H](Cc2c[nH]c3ccccc23)NC(=O)[C@H](C)NC(=O)[C@H]([C@@H](C)CC)NC(=O)[C@H](C(C)C)NC1=O [Peptide 25, KLKLKT1N*VIAWT3] (Ms-[N(2-Aminoethyl)Gly][Nle]VIAW[dProlinol(O-CH2CO)]KLKLK; lactam 1-C)
- IC50 [2]: 10 µM

Compound: CCCC[C@@H]1NC(=O)CN(S(C)(=O)=O)CCNC(=O)[C@H](CCCCN)NC(=O)[C@H](CC(C)C)NC(=O)[C@H](CCCCN)NC(=O)[C@H](CC(C)C)NC(=O)[C@H](CCCCN)NC(=O)COC[C@H]2CCCN2C(=O)[C@H](Cc2c[nH]c3ccccc23)NC(=O)[C@H](C)NC(=O)[C@H](Cc2ccccc2)NC(=O)[C@H](C(C)C)NC1=O [Peptide 26, KLKLKT1N*VFAWT3] (Ms-[N(2-Aminoethyl)Gly][Nle]VFAW[dProlinol(O-CH2CO)]KLKLK; lactam 1-C)
- IC50 [2]: 9 µM

Compound: CSCC[C@H]1NC(=O)CN(S(C)(=O)=O)CCNC(=O)[C@@H](CCCCN)NC(=O)[C@@H](CC(C)C)NC(=O)[C@@H](CCCCN)NC(=O)[C@@H](CC(C)C)NC(=O)[C@@H](CCCCN)NC(=O)CN(S(C)(=O)=O)CCNC(=O)[C@@H](Cc2c[nH]c3ccccc23)NC(=O)[C@@H](CO)NC(=O)[C@@H](C(C)C)NC(=O)[C@@H](C(C)C)NC1=O [cyclic D-HYD1]
- IC50 (24 h): 30 µM
- activity relative to linear D-HYD1 (words) (H929 cells): twice as active as linear D-HYD1
- activity relative to linear D-HYD1 (words) (H929 cells, listed as c-D-HYD1): about twice as active as linear D-HYD1

Compound: KLKLKT1AAVVN*T1 (cyclo(KLKLK[T1″]AAVV[Nle][T1″])) [Peptide 15]
- IC50 [1]: 18 µM
- bioactivity relative to parent/comparator peptide (H929 cells): unexpected improvement in bioactivity
- IC50 [2]: 3 µM

Compound: KLKLKT1WAAVN*T1 (cyclo(KLKLK[T1″]WAAV[Nle][T1″])) [Peptide 14]
- IC50 [1]: > 50 µM
- IC50 [2]: 41 µM

Compound: KLKLKT1WAVAN*T1 (cyclo(KLKLK[T1]WAVAL[T1]); not fully specified (residue 11); printed as KLKLKT1WAVAN*T1) [Peptide 13]
- IC50 [1]: 9 µM
- IC50 [2]: 26 µM
